From EP0435725B1, “DNA having the genetic information of phospholipase D and its use” (Asahi Kasei Kogyo Kabushiki Kaisha, priority 1989, dated 1991)

System: phospholipase D
Assay: Substrate specificity of phospholipase D (choline release, choline oxidase/peroxidase colorimetry at 500 nm)
Format: biochemical, Streptomyces chromofuscus
Conditions: substrate emulsion 10 mM, 0.1 ml; 37°C, 10 minutes, pH 8.0; relative to activity on lysolecithin as 100
Experimental: To the reaction mixture having a composition as above was added 0.05 ml of the enzyme solution. After reaction it 37°C for 10 minutes, the mixture was boiled for 5 minutes to stop the reaction. The reaction solution was cooled to 37°C. Then, 0.1 ml of 4-aminoantipyrine (3 mg/ml), 0.1 ml of Phenol (2 mg/ml), 0.1 ml of peroxidase (2 U/ml), 0.1 ml of choline oxidase (30 U/ml) and 0.1 ml of water were added to the solution, the reaction was conducted at 37°C for 20 minutes before adding 2 ml of 1% Triton X100 to the reaction mixture for measuring the absorbance at 500 nm. It is defined that 1 Unit (U) of phospholipase D has an enzyme activity of producing 1 […] of choline. The enzyme activity is calculated from the following equation: U/ml = ΔA₅₀₀ x 0.55 [formula] wherein ΔA₅₀₀ denotes the absorbance at 500 nm.
The same procedure as described above for the reaction solution for the measurement of the activity was repeated except that emulsions (10 mM, 0.1 ml) of lecithin, lysolecithin and sphingomyelin, respectively, as substrates were used. The amount of choline was determined, and the relative enzyme activities are calculated in terms of the enzyme activity to lysolecithin as 100.

Lysolecithin
Relative Activity: 100%

phosphatidylcholine [Lecithin]
Relative Activity: 51%

Sphingomyelin
Relative Activity: 19%
